The data set in a line: HILIC, Waters ACQUITY UPLC BEH Amide, 100 × 2.1 mm, 1.7 µm; A: water + 0.125% formic acid + 10 mM ammonium formate; B: 5% water + 95% acetonitrile + 0.125% formic acid + 10 mM ammonium formate; gradient (min/%B) 0/100 2/100 7.7/70 9.5/40 10.25/30 12.75/100 17/100. The note with it: stereoisomer not certain.
`Nc1ccc(O)c(C(=O)O)c1`: the LC retention time came to 3.89 min.
For `Nc1nc2ccc(Cl)cc2c2nc(-c3ccco3)nn12` the value was 1.07 min; for `NC1CCN(c2cccc(Cl)n2)CC1`, 4.85 min; for `C=C(C)CN1CCC23c4c5ccc(O)c4OC2c2[nH]c4ccccc4c2CC3(O)C1C5` (centres undefined), 2.93 min.
As for `CC(=O)NCCCCCCNC(C)=O`, the figure is 1.5 min.
As for `COCC1=C(C(=O)OC(C)OC(=O)OC(C)C)N2C(=O)C(NC(=O)C(=NOC)c3csc(N)n3)C2SC1` (centres undefined), the figure is 1.12 min; as for `Cc1sc(N)c(C(=O)c2cccc(C(F)(F)F)c2)c1C`, 0.94 min; as for `Cc1cc2nc3c(=O)[nH]c(=O)nc-3n(CC(O)C(O)C(O)COP(=O)(O)OP(=O)(O)OCC3OC(n4cnc5c(N)ncnc54)C(O)C3O)c2cc1C` (centres undefined), 9.52 min.
`Br.CN1CCC2(c3cccc(O)c3)Cc3nc4ccccc4cc3CC2C1.O` (centres undefined): the LC retention time was found to be 5.11 min.
As for `CN1CCN(c2nc3cc(C(F)(F)F)ccc3n3cccc23)CC1`, the figure is 2.21 min; as for `COC(=O)N1CCN(C(=O)Cc2ccc(Cl)c(Cl)c2)C(CN2CCCC2)C1` (centres undefined), 2.56 min; as for `COc1ccc2[nH]cc(C3=CCNCC3)c2c1`, 4.61 min.
For `OC1CCCCC1O` (centres undefined) [1,2-Cyclohexanediol] the value was 4.88 min; for `O=C1CCCCC1=O` [1,2-Cyclohexanedione], 5.77 min.
For `O=C1CCCC(=O)C1` [1,3 Cyclohexanedione] the value was 1.47 min; for `CC12CCC3c4ccc(O)cc4CCC3C1CCC2=O` (centres undefined) [1,3,5(10)-Estratrien-3-ol-17-one], 1.01 min.
On to `Cn1c(=O)c2c([nH]c(=O)n2C)n(C)c1=O` [1,3,7-Trimethyluric acid], for which the LC retention time stood at 1.83 min.
As for `O=C(O)C1CCC(C(=O)O)CC1` (centres undefined) [1,4-Cyclohexanedicarboxylic acid], the figure is 1.56 min.
As for `O=C1CCC(=O)CC1` [1,4-Cyclohexanedione], the figure is 1.15 min.
For `OCC1OCC(O)C(O)C1O` (centres undefined) [1,5-Anhydrosorbitol] the value was 0.92 min; for `Cn1c(=O)[nH]c2[nH]c(=O)n(C)c2c1=O` [1,7-Dimethyluric acid], 4.09 min.
For the molecule `Cn1c(=O)[nH]c2ncn(C)c2c1=O` [1,7-Dimethylxanthine], the LC retention time amounted to 1.69 min.
With `CC(=O)n1ccnc1` [1-Acetylimidazole], the LC retention time came out at 1.37 min.
For `c1ccc(Cn2ccnc2)cc1` [1-Benzylimidazole] the value was 1.63 min; for `Cn1cnc(C[C@H](N)C(=O)O)c1` [1-Methyl-L-histidine], 9.1 min.
For `Cn1cnc2c(ncn2C2OC(CO)C(O)C2O)c1=N` (centres undefined) [1-Methyladenosine] the value was 7.46 min.
For `Cn1c(N)nc2c(ncn2C2OC(CO)C(O)C2O)c1=O` (centres undefined) [1-Methylguanosine] the value was 5.84 min; for `C[n+]1cccc(C(N)=O)c1` [1-Methylnicotinamide], 6.26 min; for `Cn1cc(C2OC(CO)C(O)C2O)c(=O)[nH]c1=O` (centres undefined) [1-Methylpseudouridine], 4.99 min.
`Cn1cc(CC(N)C(=O)O)c2ccccc21` (centres undefined) [1-Methyltryptophan]: the LC retention time was 6.38 min.
As for `Cn1c(=O)[nH]c2[nH]c(=O)[nH]c2c1=O` [1-Methyluric acid], the figure is 2.18 min; as for `CCCCCCCCCCCCCCCCCC(=O)OCC(O)CO` (centres undefined) [1-Monostearin], 0.99 min.
For `O=c1[nH]cnc2c1ncn2C1CCC(CO)O1` (centres undefined) [2',3'-Dideoxyinosine] the value was 3.44 min; for `Nc1ncnc2c1ncn2C1CC(O)C(COP(=O)(O)O)O1` (centres undefined) [2'-Deoxyadenosine-5'-monophosphate], 8.63 min; for `Nc1ncnc2c1ncn2C1CC(O)C(CO)O1` (centres undefined) [2'-Deoxyadenosine], 3.92 min.
For `Nc1ccn(C2CC(O)C(CO)O2)c(=O)n1` (centres undefined) [2'-Deoxycytidine] the value was 5.87 min.
`Nc1nc2c(ncn2C2CC(OP(=O)(O)O)C(CO)O2)c(=O)[nH]1` (centres undefined) [2'-Deoxyguanosine 3'-monophosphate]: the LC retention time was found to be 9.43 min.
`Nc1nc2c(ncn2C2CC(O)C(COP(=O)(O)O)O2)c(=O)[nH]1` (centres undefined) [2'-Deoxyguanosine 5'-monophosphate]: the LC retention time worked out at 9.25 min.
As for `Nc1nc2c(ncn2C2CC(O)C(CO)O2)c(=O)[nH]1` (centres undefined) [2'-Deoxyguanosine], the figure is 6.4 min; as for `COC1C(O)C(CO)OC1n1cc(C)c(N)nc1=O` (centres undefined) [2'-O-Methyl-5-methylcytidine], 4.93 min; as for `COC1C(O)C(CO)OC1n1cc(C)c(=O)[nH]c1=O` (centres undefined) [2'-O-Methyl-5-methyluridine], 1.75 min.
Turning to `COC1C(O)C(CO)OC1n1ccc(N)nc1=O` (centres undefined) [2'-O-Methylcytidine], the LC retention time was 5.02 min.
For `COC1C(O)C(CO)OC1n1cnc2c(=O)[nH]c(N)nc21` (centres undefined) [2'-O-Methylguanosine] the value was 5.72 min.
In the case of `COC1C(O)C(CO)OC1n1cnc2c(=O)[nH]cnc21` (centres undefined) [2'-O-Methylinosine], the LC retention time came to 4.06 min.
As for `COC1C(O)C(CO)OC1n1ccc(=O)[nH]c1=O` (centres undefined) [2'-O-Methyluridine], the figure is 2.24 min; as for `CC(O)C(C)O` (centres undefined) [2,3-Butanediol], 3.34 min; as for `Nc1ccn(C2CCC(CO)O2)c(=O)n1` (centres undefined) [2,3-Dideoxycytidine], 4.54 min.
For `O=c1ccn(C2CCC(CO)O2)c(=O)[nH]1` (centres undefined) [2,3-Dideoxyuridine] the value was 1.73 min; for `NC(CCCC(N)C(=O)O)C(=O)O` (centres undefined) [2,6-Diaminopimelic acid], 9.88 min; for `O=c1ccc2cccc(O)c2[nH]1` [2,8-Quinolinediol], 1.53 min.
As for `NCCc1ccccn1` [2-(2-Aminoethyl)pyridine], the figure is 5.52 min; as for `COc1cccc(C(=O)O)c1N` [2-Amino-3-methoxybenzoic acid], 1.27 min; as for `NCC(=O)c1ccccc1` [2-Aminoacetophenone], 1.08 min.
For `NCCS` [2-Aminoethanethiol], the LC retention time came out at 2.05 min.
As for `NCCP(=O)(O)O` [2-Aminoethylphosphonic acid], the figure is 9.39 min; as for `Nc1ccccc1O` [2-Aminophenol], 1.22 min.
As for `OCC1OC(n2cnc3c(NC4CCCC4)nc(Cl)nc32)C(O)C1O` (centres undefined) [2-Chloro-N6-cyclopentyladenosine], the figure is 1.47 min; as for `Nc1nc(Cl)nc2c1ncn2C1OC(CO)C(O)C1O` (centres undefined) [2-Chloroadenosine], 2.69 min.
For `Nc1ccn(C2CC(O)C(COP(=O)(O)O)O2)c(=O)n1` (centres undefined) [2-Deoxycytidine-5-monophosphoric acid] the value was 9.16 min.
`O=CCC(O)C(O)CO` (centres undefined) [2-Deoxyribose]: the LC retention time amounted to 1.42 min.
`O=c1ccn(C2CC(O)C(CO)O2)c(=O)[nH]1` (centres undefined) [2-Deoxyuridine]: the LC retention time came out at 2.96 min.
In the case of `CCCC=CC=O` [2-Hexenal], the LC retention time is 1.39 min.
Turning to `CC(C)C(O)C(=O)O` (centres undefined) [2-Hydroxy-3-methylbutyric acid], the LC retention time was found to be 1.29 min.
For `CC(C)CC(O)C(=O)O` (centres undefined) [2-Hydroxy-4-methylpentanoic acid] the value was 1.57 min; for `O=C(CO)c1ccccc1` [2-Hydroxyacetophenone], 4.36 min; for `O=C(C=Cc1ccccc1O)c1ccccc1` [2-Hydroxychalcone], 1.01 min.
On to `O=C(O)CCC(O)C(=O)O` (centres undefined) [2-Hydroxyglutaric acid], for which the LC retention time is 0.91 min.
For `O=c1ccc2ccccc2[nH]1` [2-Hydroxyquinoline] the value was 1.51 min; for `Oc1cc2ccccc2[nH]1` [2-Indolinone], 1.36 min.
Take `C=Cc1ccc(O)c(OC)c1` [2-Methoxy-4-vinylphenol]: the LC retention time was determined as 8.71 min.
As for `CCCCCCCCCCCCCC(=O)OC(CO)CO` [2-Myristoylglycerol], the LC retention time was found to be 1.01 min.
As for `CCCCCCCCCCCCCCCC(=O)OC(CO)CO` [2-Palmitoylglycerol], the figure is 0.99 min; as for `NC(=O)Cc1ccccc1` [2-Phenylacetamide], 1.26 min.
`CCC(=O)NCC(=O)O` [2-Propanamidoacetic acid]: the LC retention time turned out to be 5.37 min.
Consider `O=c1cccc[nH]1` [2-Pyridone], for which the LC retention time came to 2.05 min.
As for `Nc1ccn(C2OC(CO)C(O)C2O)c(=S)n1` (centres undefined) [2-Thiocytidine], the figure is 5.33 min.
As for `O=c1ccn(C2OC(CO)C(O)C2O)c(=S)[nH]1` (centres undefined) [2-Thiouridine], the figure is 2.48 min.
As for `OCC1OC(OC2C(O)OC(CO)C(O)C2O)C(O)C(O)C1O` (stereo not drawn) [2-alpha-Mannobiose], the figure is 9.47 min; as for `Nc1ncnc2c1ncn2C1CC2OP(=O)(O)OCC2O1` (centres undefined) [3',5'-Cyclic dAMP], 7.29 min; as for `COC1C(CO)OC(n2ccc(N)nc2=O)C1O` (centres undefined) [3'-O-Methylcytidine], 5.09 min.
On to `COC1C(CO)OC(n2cnc3c(=O)[nH]c(N)nc32)C1O` (centres undefined) [3'-O-Methylguanosine], for which the LC retention time worked out at 5.8 min.
For `COC1C(CO)OC(n2ccc(=O)[nH]c2=O)C1O` (centres undefined) [3'-O-Methyluridine] the value was 2.42 min.
For `O=C(O)C(O)c1ccc(O)c(O)c1` (centres undefined) [3,4-Dihydroxymandelic acid] the value was 2.3 min; for `NC(Cc1ccc(O)c(O)c1)C(=O)O` (centres undefined) [3,4-Dihydroxyphenylalanine], 8.31 min.

The record behind these values is the RepoRT retention time repository.
